Patent publication US10653676B2 (Dana-Farber Cancer Institute, Inc., priority 2010, dated 2020)

Key:
native USP1 = target: T1, native USP1 (Homo sapiens, UniProt O94782); experiment: HA-Ub-VS labelling of native USP1 in HeLa cell extracts; type: biochemical; details: HeLa cell extracts pretreated 4 h, then Ub-VS 40 min at 30° C.; FIG. 7
T1 construct: endogenous in cells; host or cells: HeLa cell extract
Method: FIG. 7 is a composite figure depicting preferential inhibition of the activity of native USP1/UAF1 by C527. HeLa cell extracts were incubated with ubiquitin-aldehyde (Ub-Ald, 5 μM) or C527 at indicated concentrations for 4 h, followed by the addition of 0.5 μM Ub-Vs for 40 min. The reaction was split into two aliquots and subjected to immunoblotting for HA or USP1, respectively.
The ability of C527 to inhibit the deubiquitinating activity of native USP1 complexes derived from human cells was determined next (FIG. 7). For this purpose, the HA-tagged ubiquitin-VS, an affinity reagent known to covalently modify and trap active DUB enzymes in cell extracts was used. Cell extracts prepared from HeLa cells were pretreated with increasing concentrations of C527 for 4 h, followed by the incubation with Ub-VS for 40 min at 30° C. The enzymatic activity of endogenous DUBs was indicated by the conjugation of Ub-VS, detected as HA-labeling (see FIG. 7, high molecular weight bands). […] Ub-VS conjugation was inhibited by ubiquitin-aldehyde (Ub-Ald), a non-specific inhibitor of DUBs (lane 3).

HeLa cells [1] = experiment: clonogenic assay; type: cell-based, human; details: FIG. 9B
Method: FIG. 9 is a composite figure showing that C527 causes DNA damage and inhibits the proliferation of tumor cells. […] HeLa cells were treated with C527 at the indicated concentrations for 24 hrs, and cells were subjected to immunoblotting. Mitomycin C (MMC, 1 μM) was used as a positive control. […] HeLa cells were seeded in a 6-well plate and treated with C527 at the indicated concentrations. Cell proliferation was evaluated using a clonogenic assay.
Cells were seeded in 6-well plate at 500 cells per well followed by treatment with C527. Colonies were allowed to grow for 7-10 days, fixed with a solution containing 10% Methanol and 10% acetic acid at room temperature for 15 min and then stained with 1% crystal violet in methanol. Colonies of >50 cells were counted, and the surviving fraction was calculated and normalized to untreated control.
Impaired HR integrity may lead to genotoxic effect. Genotoxic agents are known to directly activate DNA damage response pathways, resulting in FANCD2 monoubiquitination and CHK1 phosphorylation (FIG. 9A).

USP1/UAF1 complex = target: T2, USP1/UAF1 complex (Homo sapiens, UniProt O94782, G670A/G671A); experiment: high throughput screening for inhibitors of USP1 deubiquitinating activity; type: biochemical; details: library of approximately 150,000 compounds
T2 construct: This modified full length USP1 clone was PCR amplified and subcloned into pFastBac-HT vectors; His tag (N); made in house; host or cells: Sf9 insect cells (baculovirus)
T2 sequence (O94782 whole entry G670A/G671A): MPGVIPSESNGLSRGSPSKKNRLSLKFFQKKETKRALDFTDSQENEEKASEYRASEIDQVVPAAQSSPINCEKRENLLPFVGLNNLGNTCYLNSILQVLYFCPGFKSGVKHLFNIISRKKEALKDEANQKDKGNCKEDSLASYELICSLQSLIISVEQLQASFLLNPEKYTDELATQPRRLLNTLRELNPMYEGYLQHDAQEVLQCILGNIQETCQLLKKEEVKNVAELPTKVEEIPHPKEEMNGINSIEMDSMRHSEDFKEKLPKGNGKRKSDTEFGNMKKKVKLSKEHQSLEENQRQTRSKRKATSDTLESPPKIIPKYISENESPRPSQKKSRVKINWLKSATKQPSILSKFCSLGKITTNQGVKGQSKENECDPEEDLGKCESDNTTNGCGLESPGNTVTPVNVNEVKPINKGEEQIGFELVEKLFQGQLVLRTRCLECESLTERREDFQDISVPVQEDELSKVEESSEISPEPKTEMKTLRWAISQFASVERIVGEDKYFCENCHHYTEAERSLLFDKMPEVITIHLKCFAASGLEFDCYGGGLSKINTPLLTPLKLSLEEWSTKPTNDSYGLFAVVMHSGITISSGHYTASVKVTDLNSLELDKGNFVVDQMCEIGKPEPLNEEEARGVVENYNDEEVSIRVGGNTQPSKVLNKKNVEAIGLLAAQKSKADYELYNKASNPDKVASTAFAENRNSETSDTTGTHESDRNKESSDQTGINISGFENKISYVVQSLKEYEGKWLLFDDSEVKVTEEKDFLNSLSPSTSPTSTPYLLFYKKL
T2 sequence (Q8TAF3 whole entry partner): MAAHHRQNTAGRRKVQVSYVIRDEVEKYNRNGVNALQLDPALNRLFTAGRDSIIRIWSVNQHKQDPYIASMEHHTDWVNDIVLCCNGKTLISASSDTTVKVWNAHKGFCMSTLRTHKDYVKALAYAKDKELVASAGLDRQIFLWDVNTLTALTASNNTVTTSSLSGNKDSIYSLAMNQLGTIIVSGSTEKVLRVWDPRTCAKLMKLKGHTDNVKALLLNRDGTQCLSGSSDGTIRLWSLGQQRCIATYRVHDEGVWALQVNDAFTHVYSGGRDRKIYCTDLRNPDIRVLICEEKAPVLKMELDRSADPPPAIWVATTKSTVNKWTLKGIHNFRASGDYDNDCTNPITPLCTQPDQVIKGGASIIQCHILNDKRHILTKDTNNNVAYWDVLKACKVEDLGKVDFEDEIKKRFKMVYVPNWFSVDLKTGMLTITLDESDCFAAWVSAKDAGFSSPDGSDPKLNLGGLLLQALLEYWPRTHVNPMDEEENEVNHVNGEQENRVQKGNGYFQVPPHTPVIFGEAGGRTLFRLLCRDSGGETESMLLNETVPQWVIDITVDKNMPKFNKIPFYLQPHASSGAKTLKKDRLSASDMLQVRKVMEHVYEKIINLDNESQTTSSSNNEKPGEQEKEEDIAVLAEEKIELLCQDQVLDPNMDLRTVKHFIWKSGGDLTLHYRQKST
Method: The ubiquitin-Rho based enzyme assay for high throughput screening was established in a 384-well format. The reaction buffer containing and USP1/UAF1 complex were added in 384 well plates using automated liquid handling robot-Bio-Tek Microfill (Bio-Tek Instrments Inc., VT), followed by addition of the compounds (in DMSO) from the compound library plates to wells using a pin transfer robotic system at a final concentration of 10 μM. The reaction was composed of 0.1 nM purified USP1/UAF complex, 75 nM ubiquitin Rhodamine (Ub-Rho, Boston Biochem, U-600) and 2 μM ubiquitin. Fluorescence was monitored in a FluoStar Galaxy Fluorometer (BMG Labtech). Fluorescence emission at 535 nm (λex=485 nm) was measured in an automated plate reader Envision 2 (Perkin Elmer, Mass.).
In order to develop a highly sensitive assay with easy readout for high throughput detection, the fluorogenic compound Ubiquitin-7-amido-4-methylcoumarin (AMC-Ub, Boston Biochem) was used as a substrate for USP1/UAF1 enzyme complex. USP1 catalyzes the cleavage of AMC-Ub, releasing free AMC moiety, which leads to increase in fluorescence emission at 460 nm (λex=380 nm). Dang et al. (1998) Biochemistry 37:1868-79. Catalytic activity towards AMC-Ub increases 35 fold compared to USP1 enzyme alone. Initial enzyme assay development was performed in 96-well plates with 100 μl reaction volume containing 20 mM HEPES-KOH, 0.1 mg/ml ovalbumin (Sigma), 0.5 mM EDTA, and 10 mM DTT. 2.5 nM USP1/UAF1 enzyme complex was mixed with the reaction buffer, incubated at 37° C. for 10 minutes and then 0.3 μM AMC-Ub was added. Fluorescence was measured using a Fluostar Galaxy Fluorometer (BMG Labtech Inc.).
Once the preliminary enzyme assay was established in 96-well format, it was optimized for 384 wells for high throughput screening (HTS) of inhibitors. The major points to be considered were the volume of the reaction and amount of AMC-Ub substrate to be used in the assay. Since the price of AMC-Ub is very high, in order to make it a feasible assay for HTS, lowest workable amount of the AMC conjugate was used. Reaction volume was minimized to 30 μl in order to meet the recommendation of ICCB-L screening facility (Harvard). In the preliminary optimization experiment, a series of pilot experiments were performed with varying AMC-Ub concentrations (0.025 μM to 0.2 μM), along with the varying concentration of USP1/UAF1 complex (0.2 nM to 3.2 nM). […] After incubating the enzyme and buffer at 37° C. for 10 minutes, AMC-Ub was added and fluorescence emission at 460 nm (λex=380 nm) was measured in an automated plate reader Envision 2 (Perkin Elmer). Fluorescence reading for all time points up to one hour was noted and the data for different AMC-Ub concentration range was plotted with each USP1/UAF1 enzyme complex concentration. […]

HeLa cells [2] = experiment: sensitization of HeLa cells to mitomycin C, cell survival by redox dye; type: cell-based, human; details: 20 micromolar compound; MMC 0, 200, or 500 nM; FIG. 4
Method: HeLa cells were pretreated for six hours with selected concentrations (0, 200, or 500 nM) of mitomycin C (MMC), washed, then exposed to selected concentrations (0, 10, or 20 μM) of the compound of Formula IV (527) for eight hours. Cell survival was measured by redox dye.

T1 sequence (O94782 whole entry): as the sequence (O94782 whole entry G670A/G671A) above, with A670G, A671G counted along it
T1 sequence (Q8TAF3 whole entry partner): as the sequence (Q8TAF3 whole entry partner) above

O=C1c2ccccc2C(=O)c2oc(-c3ccc(F)cc3)nc21 [Formula IV (527)]
USP1 binding to Ub-VS (native USP1): did inhibit USP1 binding to Ub-VS in the same reaction in a dose-dependent manner | cell proliferation (HeLa cells [1]): inhibited cell proliferation | identified as inhibitor of USP1 in initial in vitro screening (USP1/UAF1 complex): inhibitors of USP1 | sensitization to the cytotoxic effects of MMC (HeLa cells [2]): sensitization of the HeLa cells
